Assay results reported in patent US20190092756A1, “CRYSTALLINE FORM A OF 2-[(2R)-2-METHYL-2-PYRROLIDYL]-1H-BENZIMIDAZOLE-7-CARBOXAMIDE DIHYDROCHLORIDE AND PREPARATION METHOD THEREOF” (Crystal Pharmatech Co., Ltd., priority 2016, published 2019).
In brackets after ≈: the same amount, converted by molar mass. Where two headings read alike, the source gives them in different places.

What was measured:
[1] = cited from earlier work; for Solubility (in words): from CN101821270A and CN101821269B
[2] = Particle size distribution (PSD) study, laser particle size analyzer; format: physicochemical; conditions: wet method, dispersion medium Isopar G
Description: The result of particle size distribution (PSD) in the present disclosure was acquired by laser particle size analyzer with S3500 model from Microtrac company. The Microtrac S3500 is equipped with a SDC (Sample Delivery Controller) sampling system. This experiment uses a wet method and the dispersion medium is Isopar G. The method and parameters of the laser particle size analyzer are as follows:
The particle size distributions (PSD) of crystalline form A and crystalline form 1 and form 2 in CN101821269B were studied.

[3] = Physical stability study (storage, XRPD before and after); format: physicochemical; conditions: 1 month
Protocol: Crystalline form A was stored at 25° C./60% RH and 40° C./75% RH for one month.

[4] = Solubility study in SGF, FeSSIF, FaSSIF and water; format: physicochemical
Protocol: Crystalline form A samples were dissolved into 1 mL of simulated gastric fluid (SGF), fed state simulated intestinal fluid (FeSSIF, pH 5.0), fasted state simulated intestinal fluid (FaSSIF, pH 6.5) and water to test the corresponding solubility.

[5] = Mechanical stability study (grinding, XRPD before and after); format: physicochemical; conditions: ground for 5 minutes
Protocol: Crystalline form A of present disclosure was ground, and analyzed by XRPD before and after being ground for 5 minutes.

Row | D10 [2] [μm] | D50 [2] [μm] | D90 [2] [μm] | MV (average based on volume) [2] [μm] | Crystalline form change ([3]; 25° C./60% RH) | Crystalline form change ([3]; 40° C./75% RH) | Observation (dissolution) ([4]; 11.2 mg in 1 mL water) | Observation (dissolution) ([4]; 11.3 mg in 1 mL FeSSIF, pH 5.0) | Observation (dissolution) ([4]; 11.5 mg in 1 mL FaSSIF, pH 6.5) | Observation (dissolution) ([4]; 12.4 mg in 1 mL SGF) | Weight of sample dissolved ([4]; in 1 mL FaSSIF, pH 6.5) [mg] | Weight of sample dissolved ([4]; in 1 mL FeSSIF, pH 5.0) [mg] | Weight of sample dissolved ([4]; in 1 mL SGF) [mg] | Weight of sample dissolved ([4]; in 1 mL water) [mg] | Solubility relative to crystalline forms disclosed in the prior art ([4]; in SGF, FaSSIF, FeSSIF and water) | solubility ([4]; thermodynamic from solid, in SGF, FaSSIF, FeSSIF and water) [µg/mL] | XRPD pattern change before and after grinding [5] | SMILES | Solubility (in words) ([1]; listed as Crystalline form 1) | Solubility (in words) ([1]; listed as crystalline form 2) | solubility ([1]; after 24 hours in SGF, from CN105130961A) [µg/mL]
1 | 11.54 | 18.89 | 31.97 | 20.89 |  |  |  |  |  |  |  |  |  |  |  |  |  | C[C@]1(c2nc3cccc(C(N)=O)c3[nH]2)CCCN1 [Form 1, 2-[(2R)-2-methyl-2-pyrrolidinyl]-1H-benzimidazole-7-carboxamide] | better solubility |  | 
2 | 8.99 | 59.08 | 231.9 | 94.50 |  |  |  |  |  |  |  |  |  |  |  |  |  | C[C@]1(c2nc3cccc(C(N)=O)c3[nH]2)CCCN1 [Form 2, 2-[(2R)-2-methyl-2-pyrrolidinyl]-1H-benzimidazole-7-carboxamide] |  | poor solubility | 
3 |  |  |  |  |  |  |  |  |  |  |  |  |  |  |  |  |  | C[C@]1(c2nc3c(C(N)=O)cccc3[nH]2)CCCN1 [crystalline form B, 2-[(2R)-2-methyl-2-pyrrolidinyl]-1H-benzimidazole-7-carboxamide] |  |  | 6000 (≈ 24.6 mM)
4 | 41.6 | 278.6 | 1118 | 407.2 | No change | No change | Completely | Completely | Completely | Completely | 11.5 | 11.3 | 12.4 | 11.2 | at least 2 times | > 10000 | no significant change | C[C@]1(c2nc3cccc(C(N)=O)c3[nH]2)CCCN1 [Form A, 2-[(2R)-2-methyl-2-pyrrolidinyl]-1H-benzimidazole-7-carboxamide] |  |  | 
